Our source for the IC50 values is patent US9932341B2, “Use of pyrazolopyrimidine derivatives for the treatment of PI3K-delta related disorders” (Incyte Corporation, priority 2013, dated 2018).

Where a name gives a salt, the structure may show the parent alone.

For this experiment, the target named is PI3Kδ (p110δ/p85α) (Homo sapiens (Human), UniProt O00329). The experiment is described as follows: PI3Kδ Scintillation Proximity Assay (Example A3). The conditions noted are these: 20 μM ATP, 20 μM PIP2, 4 nM PI3Kδ, read-out: PI3Kδ SPA IC50. The class given is biochemical. The essentials: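 SPA with 4 nM p110δ/p85α, 20 μM PIP2, 20 μM ATP plus [γ-^33P]ATP, in 20 mM MOPS pH 6.7, 10 mM MgCl2, 5 mM DTT, 0.03% CHAPS, 0.5% DMSO, room temperature. Stopped with EDTA/ATP, WGA SPA beads, overnight shaking, scintillation counting. IC50 from % control activity vs log concentration.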
Chain of PI3Kδ (p110δ/p85α) (O00329 whole entry): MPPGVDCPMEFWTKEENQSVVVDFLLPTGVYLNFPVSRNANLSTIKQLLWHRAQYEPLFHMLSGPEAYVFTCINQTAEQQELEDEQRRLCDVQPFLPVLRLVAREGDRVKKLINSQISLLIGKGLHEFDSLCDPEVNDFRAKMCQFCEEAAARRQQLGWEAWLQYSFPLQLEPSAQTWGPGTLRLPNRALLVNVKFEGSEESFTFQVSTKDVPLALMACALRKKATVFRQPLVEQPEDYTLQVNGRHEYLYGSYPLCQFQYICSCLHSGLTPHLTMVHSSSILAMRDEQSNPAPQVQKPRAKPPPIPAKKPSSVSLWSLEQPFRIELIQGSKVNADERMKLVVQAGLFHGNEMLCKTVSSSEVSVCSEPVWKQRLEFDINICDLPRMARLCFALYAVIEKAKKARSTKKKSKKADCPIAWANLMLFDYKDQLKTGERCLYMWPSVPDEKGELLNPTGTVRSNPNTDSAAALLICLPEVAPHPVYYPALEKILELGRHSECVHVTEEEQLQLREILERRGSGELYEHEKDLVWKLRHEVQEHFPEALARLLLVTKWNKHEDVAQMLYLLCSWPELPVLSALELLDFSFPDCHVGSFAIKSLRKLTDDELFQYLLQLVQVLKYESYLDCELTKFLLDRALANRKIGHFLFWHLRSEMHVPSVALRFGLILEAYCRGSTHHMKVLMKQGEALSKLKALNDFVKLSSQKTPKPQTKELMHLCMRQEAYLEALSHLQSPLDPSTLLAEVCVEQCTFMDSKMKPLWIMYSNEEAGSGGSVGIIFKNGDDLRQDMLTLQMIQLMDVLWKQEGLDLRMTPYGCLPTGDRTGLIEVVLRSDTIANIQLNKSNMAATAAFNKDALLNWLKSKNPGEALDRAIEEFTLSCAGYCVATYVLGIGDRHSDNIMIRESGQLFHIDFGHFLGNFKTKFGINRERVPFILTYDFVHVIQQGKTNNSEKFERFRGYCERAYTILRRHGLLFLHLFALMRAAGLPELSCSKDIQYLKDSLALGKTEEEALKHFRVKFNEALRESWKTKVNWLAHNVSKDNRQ
Chain of PI3Kδ (p110δ/p85α) (P27986 whole entry partner): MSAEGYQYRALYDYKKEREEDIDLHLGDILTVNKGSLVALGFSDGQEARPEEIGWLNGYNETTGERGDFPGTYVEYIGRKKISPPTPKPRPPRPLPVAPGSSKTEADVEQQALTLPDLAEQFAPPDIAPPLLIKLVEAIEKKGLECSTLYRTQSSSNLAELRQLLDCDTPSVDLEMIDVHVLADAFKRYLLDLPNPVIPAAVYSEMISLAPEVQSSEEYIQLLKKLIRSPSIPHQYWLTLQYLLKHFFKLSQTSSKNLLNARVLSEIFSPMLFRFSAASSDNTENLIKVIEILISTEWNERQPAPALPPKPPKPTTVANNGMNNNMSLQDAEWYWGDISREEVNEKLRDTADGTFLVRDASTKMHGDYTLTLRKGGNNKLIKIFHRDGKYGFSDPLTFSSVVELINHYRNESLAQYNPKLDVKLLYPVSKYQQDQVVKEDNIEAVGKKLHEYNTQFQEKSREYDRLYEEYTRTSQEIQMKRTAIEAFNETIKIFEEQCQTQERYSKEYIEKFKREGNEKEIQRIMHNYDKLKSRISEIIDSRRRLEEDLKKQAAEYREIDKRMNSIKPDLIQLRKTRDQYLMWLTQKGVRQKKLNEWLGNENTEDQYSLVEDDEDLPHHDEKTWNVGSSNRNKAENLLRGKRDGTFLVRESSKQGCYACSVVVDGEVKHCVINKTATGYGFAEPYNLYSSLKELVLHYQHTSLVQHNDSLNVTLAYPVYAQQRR
As to `CCOc1c(C(C)n2nc(C)c3c(N)ncnc32)cc(Cl)c(F)c1C1CN(C(C)C)C1` (stereo not drawn) [139 (1st peak), 1-{1-[5-Chloro-2-ethoxy-4-fluoro-3-(1-isopropylazetidin-3-yl)phenyl]ethyl}-3-methyl-1H-pyrazolo[3,4-d]pyrimidin-4-amine], the IC50 is less than 10 nM.
For `CCN1CC(c2c(Cl)c(Cl)cc(C(C)n3nc(C)c4c(N)ncnc43)c2OC)C1` (stereo not drawn) [298 (1st peak), 1-{1-[4,5-Dichloro-3-(1-ethylazetidin-3-yl)-2-methoxyphenyl]ethyl}-3-methyl-1H-pyrazolo[3,4-d]pyrimidin-4-amine] the value was less than 10 nM; for `CCOc1c(C(C)n2nc(C)c3c(N)ncnc32)cc(Cl)c(C#N)c1C1CNC(=O)O1` (stereo not drawn) [323 (1st peak), 4-[1-(4-amino-3-methyl-1H-pyrazolo[3,4-d]pyrimidin-1-yl)ethyl]-6-chloro-3-ethoxy-2-(2-oxo-1,3-oxazolidin-5-yl)benzonitrile], less than 10 nM; for `COc1c(C(C)n2nc(C)c3c(N)ncnc32)cc(Cl)c(C)c1C1CN(C(C)=O)C1` (stereo not drawn) [Example 2, 1-{1-[3-(1-Acetylazetidin-3-yl)-5-chloro-2-methoxy-4-methylphenyl]ethyl}-3-methyl-1H-pyrazolo[3,4-d]pyrimidin-4-amine trifluoroacetate], less than 10 nM.
The result for `CCC(=O)N1CC(c2c(C)c(Cl)cc(C(C)n3nc(C)c4c(N)ncnc43)c2OC)C1` (stereo not drawn) [Example 3, 1-{1-[5-Chloro-2-methoxy-4-methyl-3-(1-propionylazetidin-3-yl)phenyl]ethyl}-3-methyl-1H-pyrazolo[3,4-d]pyrimidin-4-amine trifluoroacetate] reads less than 10 nM; that for `CCC(C)N1CC(c2c(C)c(Cl)cc(C(C)n3nc(C)c4c(N)ncnc43)c2OC)C1` (stereo not drawn) [Example 8, 1-{1-[3-(1-sec-butylazetidin-3-yl)-5-chloro-2-methoxy-4-methylphenyl]ethyl}-3-methyl-1H-pyrazolo[3,4-d]pyrimidin-4-amine], less than 10 nM; that for `COc1c(C(C)n2nc(C)c3c(N)ncnc32)cc(Cl)c(C)c1-c1ccc(C(=O)N(C)C)nc1` (stereo not drawn) [Example 11, 5-{3-[1-(4-Amino-3-methyl-1H-pyrazolo[3,4-d]pyrimidin-1-yl)ethyl]-5-chloro-2-methoxy-6-methylphenyl}-N,N-dimethylpyridine-2-carboxamide bis(trifluoroacetate)], less than 10 nM.
The result for `CCOc1c(C(C)n2nc(C)c3c(N)ncnc32)cc(Cl)c(C)c1-c1ccc(C(=O)N(C)C)nc1` (stereo not drawn) [Example 14, 5-{3-[1-(4-Amino-3-methyl-1H-pyrazolo[3,4-d]pyrimidin-1-yl)ethyl]-5-chloro-2-ethoxy-6-methylphenyl}-N,N-dimethylpyridine-2-carboxamide bis(trifluoroacetate)] reads less than 10 nM; that for `COc1c(C(C)n2nc(C)c3c(N)ncnc32)cc(Cl)c(C)c1-c1ccc(C(=O)NCCO)nc1` (stereo not drawn) [Example 23, 5-(3-(1-(4-amino-3-methyl-1H-pyrazolo[3,4-d]pyrimidin-1-yl)ethyl)-5-chloro-2-methoxy-6-methylphenyl)-N-(2-hydroxyethyl)picolinamide trifluoroacetate], less than 10 nM; that for `COc1c(C(C)n2nc(C)c3c(N)ncnc32)cc(Cl)c(F)c1C1CN(C)C1` (stereo not drawn) [Example 72], less than 10 nM.
With `CCOc1c(C(C)n2nc(C)c3c(N)ncnc32)cc(Cl)c(C)c1C1CN(C[C@H](C)O)C1` (stereo partly drawn) [Example 96, (2S)-1-(3-{3-[1-(4-Amino-3-methyl-1H-pyrazolo[3,4-d]pyrimidin-1-yl)ethyl]-5-chloro-2-ethoxy-6-methylphenyl}azetidin-1-yl)propan-2-ol bis(trifluoroacetate)], the IC50 is less than 10 nM.
As to `CCOc1c(C(C)n2nc(C)c3c(N)ncnc32)cc(Cl)c(C)c1C1CN(C(=O)[C@H](C)O)C1` (stereo partly drawn) [Example 99, (2S)-1-(3-{3-[1-(4-Amino-3-methyl-1H-pyrazolo[3,4-d]pyrimidin-1-yl)ethyl]-5-chloro-2-ethoxy-6-methylphenyl}azetidin-1-yl)-1-oxopropan-2-ol trifluoroacetate], the IC50 is less than 10 nM.
For `CNC(=O)[C@@H](C)N1CC(c2c(C)c(Cl)cc(C(C)n3nc(C)c4c(N)ncnc43)c2OC)C1` (stereo partly drawn) [Example 110, (2R)-2-(3-{3-[1-(4-Amino-3-methyl-1H-pyrazolo[3,4-d]pyrimidin-1-yl)ethyl]-5-chloro-2-methoxy-6-methylphenyl}azetidin-1-yl)-N-methylpropanamide trifluoroacetate] the value was less than 10 nM.
The result for `COc1c(C(C)n2nc(C)c3c(N)ncnc32)cc(Cl)c(C)c1C1CN(C(CO)C(F)(F)F)C1` (stereo not drawn) [Example 113, 2-(3-{3-[1-(4-Amino-3-methyl-1H-pyrazolo[3,4-d]pyrimidin-1-yl)ethyl]-5-chloro-2-methoxy-6-methylphenyl}azetidin-1-yl)-3,3,3-trifluoropropan-1-ol] reads less than 10 nM; that for `CCOc1c(C(C)n2nc(C)c3c(N)ncnc32)cc(Cl)c(F)c1C1CN(C[C@H](C)O)C1` (stereo partly drawn) [Example 149, (2S)-1-(3-{3-[1-(4-Amino-3-methyl-1H-pyrazolo[3,4-d]pyrimidin-1-yl)ethyl]-5-chloro-2-ethoxy-6-fluorophenyl}azetidin-1-yl)propan-2-ol], less than 10 nM.
Take `COc1c(C(C)n2nc(C)c3c(N)ncnc32)cc(Cl)c(C)c1C1CN([C@H](C)CO)C1` (stereo partly drawn) [Example 156, (2R)-2-(3-{3-[1-(4-Amino-3-methyl-1H-pyrazolo[3,4-d]pyrimidin-1-yl)ethyl]-5-chloro-2-methoxy-6-methylphenyl}azetidin-1-yl)propan-1-ol]: the half-inhibitory concentration (IC50) is less than 10 nM.
For `COc1c(C(C)n2nc(C)c3c(N)ncnc32)cc(Cl)c(C)c1C1CN([C@H](C)C(=O)N(C)C)C1` (stereo partly drawn) [Example 159, (2R)-2-(3-{3-[1-(4-Amino-3-methyl-1H-pyrazolo[3,4-d]pyrimidin-1-yl)ethyl]-5-chloro-2-methoxy-6-methylphenyl}azetidin-1-yl)-N,N-dimethylpropanamide] the value was less than 10 nM; for `COc1c(C(C)n2nc(C)c3c(N)ncnc32)cc(Cl)c(C)c1-c1ccnc(C(=O)N(C)C)c1` (stereo not drawn) [Example 200, 4-(3-(1-(4-Amino-3-methyl-1H-pyrazolo[3,4-d]pyrimidin-1-yl)ethyl)-5-chloro-2-methoxy-6-methylphenyl)-N,N-dimethylpicolinamide bis(2,2,2-trifluoroacetate)], less than 10 nM; for `CCOc1c(C(C)n2nc(C)c3c(N)ncnc32)cc(Cl)c(C)c1-c1ccc(C(=O)N(C)C)cn1` (stereo not drawn) [Example 208, 6-{3-[1-(4-Amino-3-methyl-1H-pyrazolo[3,4-d]pyrimidin-1-yl)ethyl]-5-chloro-2-ethoxy-6-methylphenyl}-N,N-dimethylnicotinamide bis(trifluoroacetate)], less than 10 nM.
The result for `CCOc1c(C(C)n2nc(C)c3c(N)ncnc32)cc(Cl)c(C#N)c1C1CN(C[C@H](C)O)C1` (stereo partly drawn) [Example 220, 4-[1-(4-Amino-3-methyl-1H-pyrazolo[3,4-d]pyrimidin-1-yl)ethyl]-6-chloro-3-ethoxy-2-{1-[(2S)-2-hydroxypropyl]azetidin-3-yl}benzonitrile] reads less than 10 nM; that for `COc1c(C(C)n2nc(C)c3c(N)ncnc32)cc(Cl)c(C#N)c1C1CN(C[C@H](C)O)C1` (stereo partly drawn) [Example 269, 4-[1-(4-Amino-3-methyl-1H-pyrazolo[3,4-d]pyrimidin-1-yl)ethyl]-6-chloro-2-{1-[(2S)-2-hydroxypropyl]azetidin-3-yl}-3-methoxybenzo nitrile], less than 10 nM.
